Results reported in US20170049843A1, “Hepatocyte Growth Factor Mimics as Therapeutic Agents” (WASHINGTON STATE UNIVERSITY, priority 2011, published 2017).
Structures can show the parent of a compound that is named as a salt. Where a SMILES comes first, the peptide text is derived from it. Where no end group is shown, it is not given here. [ ]: non-standard residue; d: D form. dNle = CCCC[C@@H](N)C(=O)O; Ahx = NCCCCCC(=O)O; GABA = NCCCC(=O)O

Tests used:
HGF [1] = target: T1, HGF (Homo sapiens, UniProt P14210); assay: HGF binding, competition with 3H-Hinge
T1 construct: purchased R&D Systems (Minneapolis, Minn.)
T1 sequence (P14210 32-728): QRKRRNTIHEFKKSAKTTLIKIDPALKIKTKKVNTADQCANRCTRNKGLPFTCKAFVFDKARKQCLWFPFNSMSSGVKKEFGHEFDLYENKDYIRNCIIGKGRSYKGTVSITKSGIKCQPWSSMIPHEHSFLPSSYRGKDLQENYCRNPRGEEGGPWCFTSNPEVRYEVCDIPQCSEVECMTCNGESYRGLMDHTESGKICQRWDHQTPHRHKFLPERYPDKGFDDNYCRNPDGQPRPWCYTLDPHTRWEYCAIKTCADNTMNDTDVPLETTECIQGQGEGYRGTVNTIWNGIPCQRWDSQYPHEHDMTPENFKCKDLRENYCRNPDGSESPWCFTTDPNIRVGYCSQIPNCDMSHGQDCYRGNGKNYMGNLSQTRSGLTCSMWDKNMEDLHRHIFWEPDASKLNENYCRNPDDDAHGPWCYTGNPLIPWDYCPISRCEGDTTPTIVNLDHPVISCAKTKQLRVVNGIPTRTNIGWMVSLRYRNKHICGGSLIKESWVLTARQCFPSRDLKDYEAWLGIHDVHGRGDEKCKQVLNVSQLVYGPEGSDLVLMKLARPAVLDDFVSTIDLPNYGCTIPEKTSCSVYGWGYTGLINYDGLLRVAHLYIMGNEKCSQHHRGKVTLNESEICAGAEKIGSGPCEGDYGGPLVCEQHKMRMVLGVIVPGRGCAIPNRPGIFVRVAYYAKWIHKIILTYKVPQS
Description: The binding of 6-AH analogs to HGF was assessed by competition using a soluble binding assay. 250 μl of PBS containing human HGF (1.25 ng) were incubated with ^3H-Hinge, the central dimerization domain of HGF, in the presence of varying concentrations of 6-AH analogs between 10^−13 M to 10^−7M (half-log dilutions) for 40 min at 37° C. The incubates were then spun through Bio-Gel P6 spin columns (400 μl packed volume) for 1 min to separate free and bound ^3H-Hinge and the eluent was collected. Five milliliters of scintillation fluid was added to the eluent, which contained the HGF bound ^3H-Hinge, and was then counted using scintillation counter. Total disintegrations per minute of bound ^3H-Hinge were calculated based on machine counting efficiency. The Ki values for the binding of the peptides were determined using the Prism 5. Competition binding curves were performed in triplicate.

HGF [2] = target: T1, HGF; assay: HGF dimerization; format: biochemical; settings: analog at 10^−10M, 30 minute incubation with heparin
Description: HGF dimerization was assessed using PAGE followed by silver staining (Kawas et al., 2011). Human HGF at a concentration of 0.08 ng/μl with or without 6-AH analogs was incubated with heparin at a final concentration of 5 μg/ml. Loading buffer was then added to each sample and the mixture separated by native PAGE using gradient Criterion XT precast gels (4-12% Bis-Tris; Biorad Laboratories, Hercules, Calif.). Next the gel was silver stained for the detection of the HGF monomers and dimers. Bands were quantitated from digital images using a UVP phosphoimager (Upland, Calif.).

Met = assay: Inhibition of HGF-dependent Met phosphorylation in HEK293 cells; format: cell-based, human; settings: 10 min
Description: HEK293 cells were seeded in 6 well tissue culture plates and grown to 95% confluency in DMEM containing 10% FBS. The cells were serum deprived for 24 h prior to the treatment to reduce the basal levels of phospho-Met. Following serum starvation, cocktails comprised of vehicle and HGF with/without 6-AH analogs were prepared and pre-incubated for 30 min at room temperature. The cocktail was then added to the cells for 10 min to stimulate the Met receptor and downstream proteins. Cells were harvested using RIPA lysis buffer (Millipore; Billerica, Mass.) fortified with phosphatase inhibitor cocktails 1 and 2 (Sigma-Aldrich; St. Louis, Mo.). The lysate was clarified by centrifugation at 15,000 n×g for 15 min, protein concentrations were determined using the BCA total protein assay (Pierce), and then appropriate volumes of the lysates were diluted with 2× reducing Laemmli buffer and heated for ten min at 95° C. Samples containing identical amounts of protein were resolved using SDS-PAGE (Criterion, BioRad Laboratories), transferred to nitrocellulose, and blocked in Tris-buffered saline (TBS) containing 5% milk for 1 h at room temperature. The phospho-Met antibody were added to the blocking buffer at a final concentration of 1:1000 and incubated at 4° C. overnight with gentle agitation. The membranes were then washed several times with water and TBS ([…]), a 1:5000 dilution of horseradish-peroxidase conjugated goat anti-rabbit antiserum was added, and the membranes further incubated for 1 h at room temperature. Proteins were visualized using the Supersignal West Pico Chemiluminescent Substrate system (Pierce, Fenton, Mo.) and molecular weights determined by comparison to protein ladders (BenchMark, Invitrogen, and Kaleidoscope, BioRad). Film images were digitized and analyzed using a UVP phosphoimager.

MDCK cells [3] = assay: Inhibition of HGF-dependent scattering in MDCK cells; format: cell-based, canine; settings: for inhibition of HGF-dependent scattering in MDCK cells: HGF 20 ng/ml, 48 h
Description: (§1) MDCK cells were grown to 100% confluency on the coverslips in six-well plates and washed twice with PBS. The confluent coverslips were then aseptically transferred to new six well plates containing 900 μl serum free DMEM. Norleual, Hinge peptide, and/or HGF (20 ng/ml) were added to appropriate wells. Control wells received PBS vehicle. Plates were incubated at 37° C. with 5% CO2 for 48 hours. Media was removed and cells were fixed with methanol. Cells were stained with Diff-Quik Wright-Giemsa (Dade-Behring, Newark, Del.) and digital images were taken. Coverslips were removed with forceps and more digital images were captured. Pixel quantification of images was achieved using Image J and statistics were performed using Prism 5 and InStat v.3.05.
as §1, with “h.” for “hours.”, “v.3.05 (GraphPad; San Diego, Calif.).” for “v.3.05.”

MDCK cells [4] = assay: HGF-dependent MDCK cell proliferation (MTT); format: cell-based, canine; settings: 10^−10 M, 4 days, HGF 10 ng/ml
Description: 5000 MDCK cells were seeded into the wells of a 96 well plates in 10% FBS DMEM. To induce cellular quiescence, the cells were serum deprived for 24 h prior to initiating the treatments. Following serum starvation, 10 ng/ml HGF alone and with various concentrations of 6-AH analogs or PBS vehicle were added to the media. The cells were allowed to grow under these conditions for 4 days with a daily addition of 6-AH analogs. On the fourth day, 1 mg/ml of 1-(4, 5-Dimethylthiazol-2-yl) 3, 5-diphenylformazan reagent (MTT, Sigma-Aldrich) prepared in PBS was added to the cells and incubated for 4 h. Dimethyl sulfoxide diluted in a 0.01M glycine buffer was added to solubilize the cell membranes and the absorbance of reduced MTT in the buffer was quantitated at 590 nm using a plate reader (Biotek Synergy 2, Winooski, Vt.). HGF-dependent proliferation was determined by subtracting the basal proliferation (in the absence of HGF) from total proliferation rates in groups containing HGF.

Blood stability studies = format: in vitro ADME, rat; settings: rat, heparinized whole blood, heparinized rat blood, 37° C., single phase exponential decay; read-out: stability t1/2 in blood
Description: At the end of each incubation, 20 μL of Nle^1-AngIV (100 μg/mL) was added to each sample as an internal standard. […] All samples were centrifuged at 4° C., 2300× g for 5 min and the supernatants were transferred to clean tubes.
Samples were then separated by HPLC on an Econosphere C18 (100 mm×2.1 mm) from Grace Davison Discovery Science (Deerfield, Ill.). […] The mobile phase consisted of HPLC water (Sigma St. Louis, Mo.) with 0.1% trifluoroacetic or 0.1% heptafluorobutyric acid (Sigma St. Louis, Mo.) and varying concentrations of ACN or methanol. Separation was carried out using a gradient method, at ambient temperature and a flow rate of 0.3 mL/min (see below for more information). Stability half-lives were determined assuming a normal single phase exponential decay using Prism 5 graphical/statistical program (GraphPad, San Diego, Calif.).

scopolamine treated rats = assay: Morris water maze, scopolamine amnesia model; format: in vivo, rat; settings: for mean latency to find the pedestal, final day of training / mean latency to find the pedestal, fourth day of training / mean latency to find the pedestal, day one of training: icv, scopolamine 70 nmol, Dihexa 300 pmol, Hinge 300 pmol; for mean latency to find the pedestal, final day of training / mean latency to find the pedestal, fourth day of training: vehicle 43.0 s; for mean latency to find the pedestal, day one of training: vehicle 89.3 s
hippocampal neurons [5] = assay: Spinogenesis in mRFP-β-actin transfected dissociated hippocampal neurons; format: cell-based, rat
Description: Hippocampal neurons ([…] cells per square cm) were cultured from P1 Sprague Dawley rats on plates coated with poly-L-lysine from Sigma (St. Louis, Mo.; molecular weight 300,000). Hippocampal neurons were maintained in Neurobasal A media from Invitrogen (Carlsbad, Calif.) supplemented with B27 from Invitrogen, 0.5 mM L-glutamine, and […] cytosine-D-arabinofuranoside from Sigma added at 2 days in vitro. Hippocampal neurons were then cultured a further 3-7 days, at which time they were either transfected or treated with various pharmacological reagents as described in (Wayman, Davare et al. 2008).
Neurons were transfected with mRFP-β-actin on day in vitro 6 (DIV6) using LipofectAMINE™ 2000 (Invitrogen) according to the manufacturer's protocol. This protocol yielded the desired 3-5% transfection efficiency thus enabling the visualization of individual neurons. Higher efficiencies obscured the dendritic arbor of individual neurons. Expression of fluorescently tagged actin allowed clear visualization of dendritic spines, as dendritic spines are enriched in actin. On DIV7 the cells were treated with vehicle (H20) or peptides (as described in the text) added to media. On DIV12 the neurons were fixed (4% paraformaldehyde, 3% sucrose, 60 mM PIPES, 25 mM HEPES, 5 mM EGTA, 1 mM MgCl2, pH 7.4) for 20 min at room temperature and mounted. Slides were dried for at least 20 hours at 4° C. and fluorescent images were obtained with Slidebook 4.2 Digital Microscopy Software driving an Olympus IX81 inverted confocal microscope with a 60× oil immersion lens, NA 1.4 and resolution 0.280 μm Dendritic spine density was measured on primary and secondary dendrites at a distance of at least 150 μm from the soma. Five 50 μm long segments of dendrite from at least 10 neurons per data point were analyzed for each data point reported. Each experiment was repeated at least three times using independent culture preparations. Dendrite length was determined using the National Institutes of Health's Image J 1.41o program (NIH, Bethesda, Md.) and the neurite tracing program Neuron J (Meijering, Jacob et al. 2004) Spines were manually counted.
Hippocampal neurons (2×10^5 cells per square centimeter) were cultured from P1-2 Sprague Dawley rats on plates coated with poly-L-lysine from Sigma (St. Louis, Mo.; molecular weight 300,000). Hippocampal neurons were maintained in Neurobasal A media from Invitrogen (Carlsbad, Calif.) supplemented with B27 from Invitrogen, 0.5 mM L-glutamine, and […] cytosine-D-arabinofuranoside from Sigma added at 2 days in vitro. Hippocampal neurons were then cultured a further 3-7 days, at which time they were either transfected or treated with various pharmacological reagents as described in the text or figure legends.

hippocampal neurons [6] = assay: Whole-cell recordings of mEPSCs in dissociated hippocampal neurons; format: cell-based, rat; design: mean mEPSC frequency: unit not given beside the values; settings: 5 days; Hinge 10^−12 M, HGF 10 ng/ml, Dihexa 10^−12 M, alone or combined; vehicle 5.31±0.35

With `CCCC[C@@H](N)C(=O)N[C@@H](CCSC)C(=O)N[C@H](C(=O)NCCCCCC(N)=O)[C@@H](C)CC` [D-Nle-Met-Ile-NH—(CH2)5—CONH2] (H-[dNle]MI[Ahx]-NH2) the “affinity for HGF (in words)” value (HGF [1]) was “low affinity for HGF”, the “inhibition of HGF dimerization” value (HGF [2]) was “unable to block dimerization at the concentration tested” and the “inhibition of HGF-dependent Met phosphorylation” value (Met) was “no ability to effect on Met activation”. For the same compound, the “inhibition of HGF-dependent Met phosphorylation” value (Met; listed as Met) was “not different than the HGF group” and the “inhibition of HGF-dependent scattering in MDCK cells” value (MDCK cells [3]) was “not different”.
In the case of `CCCC[C@@H](N)C(=O)N[C@@H](Cc1c[nH]c2ccccc12)C(=O)N[C@H](C(=O)NCCCCCC(N)=O)[C@@H](C)CC` [D-Nle-Trp-Ile-NH—(CH2)5—CONH2] (H-[dNle]WI[Ahx]-NH2), the “affinity for HGF (in words)” value (HGF [1]) is reported as “moderate affinity for HGF”, the “inhibition of HGF dimerization” value (HGF [2]) is reported as “intermediate inhibition of dimerization” and the “inhibition of HGF dimerization” value (HGF [2]; listed as Trp) is reported as “statistically different than the HGF treated group”. The “inhibition of HGF-dependent Met phosphorylation” value (Met) was “intermediate inhibitory activity”, the “inhibition of HGF-dependent MDCK cell proliferation” value (MDCK cells [4]) was “inhibitory activity, albeit less than that observed with the most potent analogs” and the “inhibition of HGF-dependent scattering in MDCK cells” value (MDCK cells [3]) was “different from the HGF alone group but not different from the control group”.
Work on `CCCC[C@H](N)C(=O)N[C@@H](Cc1ccc(O)cc1)C(=O)N[C@H](CN[C@@H](Cc1c[nH]cn1)C(=O)N1CCC[C@H]1C(=O)N[C@@H](Cc1ccccc1)C(=O)O)CC(C)C` [Norleual, Nle-Tyr-Leu-Ψ-(CH2—NH2)^3-4-His-Pro-Phe, reference compound] yielded a half-life (Blood stability studies) of under 5 min.
With `CN1[C@@H]2C[C@@H](OC(=O)[C@H](CO)c3ccccc3)C[C@H]1[C@@H]1O[C@@H]12` [scopolamine, scopolamine hydrobromide, reference compound] the “mean latency to find the pedestal, final day of training” value (scopolamine treated rats) was 84.8 s, the “mean latency to find the pedestal, fourth day of training” value (scopolamine treated rats) was 102.4 s and the “mean latency to find the pedestal, day one of training” value (scopolamine treated rats) was 114.7 s.
For “DYIRNC (Synthetic hinge peptide) [HGF antagonist peptide representing the dimerization (hinge) domain of HGF; also printed KDYIRN, reference compound]”, the “mean latency to find the pedestal, final day of training” value (scopolamine treated rats) was 46.1 s, the “mean latency to find the pedestal, fourth day of training” value (scopolamine treated rats) was 78.3 s and the “mean latency to find the pedestal, day one of training” value (scopolamine treated rats) was 111.1 s. The “inhibition of spine formation in stimulated neurons” value (hippocampal neurons [5]; neurons stimulated with 10 ng/ml HGF, 10^−12 M Nle1-AngIV or 10^−12 M Dihexa) was “effectively inhibit spine formation”, the “effect of Hinge alone on basal spinogenesis” value (hippocampal neurons [5]; wide range of doses) was “no effect on spinogenesis over a wide range of doses” and the “mean mEPSC frequency” value (hippocampal neurons [6]) was 4.51±0.47. For the same compound, the “inhibition of scattering of MDCK cells by Hinge” value (MDCK cells [3]) was “inhibit scattering of Madin-Darby canine kidney (MDCK) cells”.
In the case of Nle-YIH-amide, the dendritic spine numbers (hippocampal neurons [5]; 10^-8 and 10^-10 M) is reported as “increased spine numbers”.
With [GABA]-Tyr-Ile [GABA-YI] the “time in the target quadrant, day 9 probe trial” value (scopolamine treated rats; analog 1 nmol icv after scopolamine) was “different than all the other treated groups” and the dendritic spine numbers (hippocampal neurons [5]; 10^-8 and 10^-10 M) was “increased spine numbers”.
With acetyl-Nle-YIH the dendritic spine numbers (hippocampal neurons [5]; 10^-8 and 10^-10 M) was “increased spine numbers” and the dendritic spine numbers (hippocampal neurons [5]; concentrations lower than 10^-10 M) was “increasing spine numbers at even lower concentrations”.
